{
  "source": "patent US7022699B2",
  "about": "“Cyclohexenyl phenyl diazepines vasopressin and oxytocin receptor modulators” (Wyeth, priority 2001, dated 2006)",
  "data": [
    {"target": "T1, human oxytocin receptor (Homo sapiens, UniProt P30559)", "T1 construct": "host or cells: CHO cells, stably transfected (pcDNA3.1 vector); membranes", "T1 sequence (P30559 1-389)": "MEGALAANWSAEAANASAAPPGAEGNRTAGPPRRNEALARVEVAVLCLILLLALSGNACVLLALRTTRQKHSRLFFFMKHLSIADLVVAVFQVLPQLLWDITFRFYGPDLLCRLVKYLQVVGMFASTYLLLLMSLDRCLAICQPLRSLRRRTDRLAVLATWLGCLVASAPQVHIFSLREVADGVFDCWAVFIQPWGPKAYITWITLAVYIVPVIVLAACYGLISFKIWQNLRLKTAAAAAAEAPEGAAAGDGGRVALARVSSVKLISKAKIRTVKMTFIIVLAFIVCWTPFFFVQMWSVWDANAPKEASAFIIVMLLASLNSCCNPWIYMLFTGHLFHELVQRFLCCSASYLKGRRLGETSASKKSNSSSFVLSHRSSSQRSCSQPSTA", "test": "Oxytocin binding in CHO cell membranes expressing human oxytocin receptors ([3H]oxytocin)", "conditions": "100 nM, values without parentheses, read-out: OT % inhibition @ 100 nM", "excerpt": "Oxytocin Binding in Chinese Hamster Ovary Cell Membranes Expressing Human Oxytocin Receptors\nChinese Hamster Ovary (CHO) cells stably transfected with the human oxytocin (cf. Tanizawa et al., U.S. Pat. No. 5,466,584 (1995) to Rohto Pharmaceutical Co. Ltd., Osaka, Japan) were obtained from M. Thibonnier, Case Western Reserve University School of Medicine, Cleveland, Ohio. A. Passaging and Amplification of Cells: CHO cells transfected with the human oxytocin receptors obtained from M. Thibonnier (pcDNA3.1 vector) are allowed to grow to confluency (approx. >90%) in T-150 flasks under sterile conditions, in a cell culture medium of F-12 Nutrient Mixture (HAM) with L-glutamine (Gibco Cat. #11765-054) containing 15 mM HEPES (Gibco Cat. #15630-080), 1% antibiotic/antimycotic (add 5 mL 100×, Gibco Cat. #15240-062 per 500 mL F-12), 400 μg/mL of Geneticin (add 4 mL of 50 mg/mL per 500 mL F-12) and 10% Fetal Bovine Serum (Qualified, heat inactivated, Gibco Cat. #16140-063). The medium is removed by aspiration and the cells are washed with 10 mL of Hank's Balanced Salt solution (Gibco Cat. #14175-095). The salt solution is removed by aspiration and the cells trypsinized with 5 mL of trypsin-EDTA (0.05% trypsin, 0.53 mM EDTA-4Na, Gibco Cat. #25300-070) for 1 min. The trypsin is removed by aspiration and the cells dislodged by tapping. Cell Culture medium (e.g. 30 mL for 1:30 split) is immediately added and mixed well to inactivate trypsin. 1 mL of detached cells is added to new culture flasks containing fresh Cell Culture medium (e.g. into 25 mL per T-150 flask), and mixed gently. The cells are incubated at 37° C. in 5% CO2. The medium is changed at 3 to 4 days interval (or as appropriate). The cells grow to confluency (approx. >75%–95%) within 7–8 days. All steps are done under sterile conditions. B. Membrane Preparation: The cells are washed twice gently with Hank's Balanced Salt solution (e.g., use 10 mL per T-150 flask). The excess is removed and the cells bathed for 15–30 min. in an enzyme-free Cell Dissociation Buffer (e.g., use 8 mL Hank's Based, Gibco Cat. #13150-016 per T-150 flask) until cells are loosened. The contents are transferred to centrifuge tubes (50 mL size) kept in ice bath. All subsequent steps are done at 4° C. The tubes are centrifuged at 300×g for 15 min (1380 rpm on SORVAL, Model RT6000D, using rotor for 50 mL tubes). The supernatant is discarded and the cells suspended in homogenizing buffer (10 mM Tris-HCl containing 0.25 M sucrose and 1 mM EDTA, pH 7.4) ensuring that the volume of the buffer is about ten times the volume of the cell pellet. The cells are pooled into a centrifuge tube (50 mL) and homogenized with Polytron at setting 6 for 10 sec. The homogenate is transferred into a Potter-Elvjehm homogenizer and homogenized with 3 strokes. The homogenate is centrifuged at 1500×g for 10 min at 4° C. (3100 rpm using SORVAL, model RT6000D, using rotor for 50 mL tubes). The pellet. is discarded. The supernatant is centrifuged at 100,000×g for 60 min. at 4° C. (Beckman L8-80M ultracentrifuge; spin at 37,500 rpm with rotor type 70 Ti for 50 mL tubes; 38,000 rpm with type 80Ti for 15 mL tubes; or 35,800 rpm with rotor type 45Ti). The supernantant is discarded and the pellet suspended in 3 to 4 mL of Tris buffer (50 mM TRIS-HCl, pH 7.4). The protein content is estimated by the Bradford or Lowry method. The volume of the membrane suspension is adjusted with the membrane buffer (50 mM Tris-HCl containing 0.1% BSA and 0.1 mM PMSF) to give 3.0 mg/mL (or as appropriate) of protein. The membranes are aliquoted and stored at −70° C. C. Radioligand Binding Assay: In wells of a 96-well format microliter plate, is added 90, 110 or 130 μL (to make up a final volume of 200 μL) of assay buffer containing 50 mM of Tris-HCl (pH 7.4), […], 1 mg % aprotinin, 1 mg % leupeptin, 2 mg % 1,10-phenanthroline, 10 mg % trypsin inhibitor, and 0.1 mM PMSF. The inhibitors are added on the day of the experiment. […]", "units": {"inhibition at 0.1 µM": "%"}, "values": [
      {"compound": "CC1(C)C2CC=C(c3ccc(C(=O)N4Cc5cccn5Cc5ccccc54)cc3)C1C2", "note": "(stereo not drawn) [Example 22, (10,11-Dihydro-5H-pyrrolo[2,1-c][1,4]benzodiazepin-10-yl)-[4-(6,6-dimethyl-bicyclo[3.1.1]hept-2-en-2-yl)-phenyl]-methanone]", "inhibition at 0.1 µM": 32},
      {"compound": "CC1(C)C=C(c2ccc(C(=O)N3Cc4cccn4Cc4ccccc43)cc2)CC(C)(C)C1", "note": "[Example 23, (10,11-Dihydro-5H-pyrrolo[2,1-c][1,4]benzodiazepin-10-yl)-[4-(3,3,5,5-tetramethyl-cyclohex-1-en-1-yl)-phenyl]-methanone]", "inhibition at 0.1 µM": 7},
      {"compound": "O=C1C=C(c2ccc(C(=O)N3Cc4cccn4Cc4ccccc43)cc2)CCC1", "note": "[Example 24, 3-[4-(10,11-Dihydro-5H-pyrrolo[2,1-c][1,4]benzodiazepine-10-carbonyl)-phenyl]-cyclohex-2-en-1-one]", "inhibition at 0.1 µM": 70},
      {"compound": "O=C(c1ccc(C2=CC(O)CCC2)cc1)N1Cc2cccn2Cc2ccccc21", "note": "(stereo not drawn) [Example 25, (10,11-Dihydro-5H-pyrrolo[2,1-c][1,4]benzodiazepin-10-yl)-[4-(3-hydroxy-cyclohex-1-en-1-yl)-phenyl]-methanone]", "inhibition at 0.1 µM": 39},
      {"compound": "CC1=C(c2ccc(C(=O)N3Cc4cccn4Cc4ccccc43)cc2)CCCC1=O", "note": "[Example 26, 3-[4-(10,11-Dihydro-5H-pyrrolo[2,1-c][1,4]benzodiazepine-10-carbonyl)-phenyl]-2-methyl-cyclohex-2-en-1-one]", "inhibition at 0.1 µM": 80},
      {"compound": "CC1=C(c2ccc(C(=O)N3Cc4cccn4Cc4ccccc43)cc2)CCCC1O", "note": "(stereo not drawn) [Example 27, (10,11-Dihydro-5H-pyrrolo[2,1-c][1,4]benzodiazepin-10-yl)-[4-(3-hydroxy-2-methyl-cyclohex-1-en-1-yl)-phenyl]-methanone]", "inhibition at 0.1 µM": 96},
      {"compound": "Cc1cc(C(=O)N2Cc3cccn3Cc3ccccc32)ccc1C1=CCCCC1C", "note": "(stereo not drawn) [Example 29, (10,11-Dihydro-5H-pyrrolo[2,1-c][1,4]benzodiazepin-10-yl)-[3-methyl-4-(6-methyl-cyclohex-1-en-1-yl)-phenyl]-methanone]", "inhibition at 0.1 µM": 81},
      {"compound": "Cc1cc(C(=O)N2Cc3cccn3Cc3ccccc32)ccc1C1=CCCCC1(C)C", "note": "[Example 30, (10,11-Dihydro-5H-pyrrolo[2,1-c][1,4]benzodiazepin-10-yl)-[4-(6,6-dimethyl-cyclohex-1-en-1-yl)-3-methyl-phenyl]-methanone]", "inhibition at 0.1 µM": 67},
      {"compound": "CC1=C(c2ccc(C(=O)N3Cc4cccn4Cc4ccccc43)cc2C)C(C)CCC1", "note": "(stereo not drawn) [Example 33, (10,11-Dihydro-5H-pyrrolo[2,1-c][1,4]benzodiazepin-10-yl)-[4-(2,6-dimethyl-cyclohex-1-en-1-yl)-3-methyl-phenyl]-methanone]", "inhibition at 0.1 µM": 56},
      {"compound": "Cc1cc(C(=O)N2Cc3cccn3Cc3ccccc32)ccc1C1=CCCCC1C(C)(C)C", "note": "(stereo not drawn) [Example 34, (10,11-Dihydro-5H-pyrrolo[2,1-c][1,4]benzodiazepin-10-yl)-[4-(6-tert-butyl-cyclohex-1-en-1-yl)-3-methyl-phenyl]-methanone]", "inhibition at 0.1 µM": 20},
      {"compound": "Cc1cc(C(=O)N2Cc3cccn3Cc3ccccc32)ccc1C1=CCC2CCC1C2", "note": "(stereo not drawn) [Example 35, (10,11-Dihydro-5H-pyrrolo[2,1-c][1,4]benzodiazepin-10-yl)-(4-bicyclo[3.2.1]oct-2-en-2-yl-3-methyl-phenyl)-methanone]", "inhibition at 0.1 µM": 48},
      {"compound": "Cc1cc(C(=O)N2Cc3cccn3Cc3ccccc32)ccc1C1=CCC2CC1C2(C)C", "note": "(stereo not drawn) [Example 36, (10,11-Dihydro-5H-pyrrolo[2,1-c][1,4]benzodiazepin-10-yl)-[4-(6,6-dimethyl-bicyclo[3.1.1]hept-2-en-2-yl)-3-methyl-phenyl]-methanone]", "inhibition at 0.1 µM": 14},
      {"compound": "Cc1cc(C(=O)N2Cc3cccn3Cc3ccccc32)ccc1C1=CC(C)(C)CC(C)(C)C1", "note": "[Example 37, (10,11-Dihydro-5H-pyrrolo[2,1-c][1,4]benzodiazepin-10-yl)-[3-methyl-4-(3,3,5,5-tetramethyl-cyclohex-1-en-1-yl)-phenyl]-methanone]", "inhibition at 0.1 µM": 30},
      {"compound": "COc1cccc(C2=C(c3ccc(C(=O)N4Cc5cccn5Cc5ccccc54)cc3C)CCCC2)c1", "note": "[Example 38, (10,11-Dihydro-5H-pyrrolo[2,1-c][1,4]benzodiazepin-10-yl)-{4-[2-(3-methoxy-phenyl)-cyclohex-1-en-1-yl]-3-methyl-phenyl}-methanone]", "inhibition at 0.1 µM": 16},
      {"compound": "Cc1cc(C(=O)N2Cc3cccn3Cc3ccccc32)ccc1C1=CC(=O)CCC1", "note": "[Example 39, 3-[4-(10,11-Dihydro-5H-pyrrolo[2,1-c][1,4]benzodiazepine-10-carbonyl)-2-methyl-phenyl]-cyclohex-2-en-1-one]", "inhibition at 0.1 µM": 76},
      {"compound": "Cc1cc(C(=O)N2Cc3cccn3Cc3ccccc32)ccc1C1=CC(O)CCC1", "note": "(stereo not drawn) [Example 40, (10,11-Dihydro-5H-pyrrolo[2,1-c][1,4]benzodiazepin-10-yl)-[4-(3-hydroxy-cyclohex-1-en-1-yl)-3-methyl-phenyl]-methanone]", "inhibition at 0.1 µM": 63},
      {"compound": "CO[C@@H]1CCCC(c2ccc(C(=O)N3Cc4cccn4Cc4ccccc43)cc2C)=C1C", "note": "[Example 44, 10-{4-[(3R)-3-Methoxy-2-methylcyclohex-1-en-1-yl]-3-methylbenzoyl}-10,11-dihydro-5H-pyrrolo[2,1-c][1,4]benzodiazepine]", "inhibition at 0.1 µM": 96},
      {"compound": "CC1=C(c2ccc(C(=O)N3Cc4cccn4Cc4ccccc43)cc2C)CCCC1N", "note": "(stereo not drawn) [Example 45, [4-(3-Amino-2-methyl-cyclohex-1-en-1-yl)-3-methyl-phenyl]-(10,11-dihydro-5H-pyrrolo[2,1-c][1,4]benzodiazepin-10-yl)-methanone]", "inhibition at 0.1 µM": 67}
    ]}
  ]
}
